Here are results for 21 molecules from US20240228506A1, “RIPK1 INHIBITORS AND METHODS OF USE” (Merck Sharp & Dohme LLC, priority 2021, published 2024).

The target in the assay is T1, GST-RIPK1 (recombinant GST-RIPK1 kinase domain (residues 1-327)) (Homo sapiens, UniProt Q13546).
T1 construct: recombinant GST-RIPK1 kinase domain (residues 1-327) enzyme; made in house; host or cells: baculovirus-transfected Sf21 insect cells
T1 sequence (Q13546 1-327): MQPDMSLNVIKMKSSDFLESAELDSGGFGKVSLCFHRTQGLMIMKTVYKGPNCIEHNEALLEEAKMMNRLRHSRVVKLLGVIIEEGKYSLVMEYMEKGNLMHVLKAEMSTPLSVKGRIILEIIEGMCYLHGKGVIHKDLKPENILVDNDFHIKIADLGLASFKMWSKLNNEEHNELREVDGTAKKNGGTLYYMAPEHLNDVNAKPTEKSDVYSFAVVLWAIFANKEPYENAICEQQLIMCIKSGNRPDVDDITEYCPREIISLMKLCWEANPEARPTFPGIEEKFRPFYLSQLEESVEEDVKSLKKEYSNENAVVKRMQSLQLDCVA
The assay is described as follows: RIPK1-ADP-Glo enzymatic assay. It is filed as biochemical. As to conditions: 25 nM GST-RIPK1, 300 μM ATP, 3 μM dephosphorylated-MBP; 30 minutes pre-incubation, 150 minutes reaction; ten-point titration. In short, it runs like this:
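Ten-point 1:3 titrations from 100000 nM, 1% DMSO, were preincubated 30 min with 25 nM GST-RIPK1 (1-327) before starting with 300 μM ATP plus 3 μM dephosphorylated MBP; 150 min reaction. ADP-Glo luminescence measured ATP-to-ADP conversion; EC50 by four-parameter sigmoidal regression.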

For `C[C@]1(C(=O)N2C[C@@H]3C[C@H]2c2cncc(C#N)c2S3)C[C@H](C#N)C1` [Compound 4-8, (2S,5S)-4-((1r,3S)-3-cyano-1-methylcyclobutane-1-carbonyl)-2,3,4,5-tetrahydro-2,5-methanopyrido[3,4-f][1,4]thiazepine-9-carbonitrile], the concentration for half-maximal inhibition (IC50) turned out to be 117 nM.

As for `N#Cc1cncc2c1O[C@H]1C[C@@H]2N(C(=O)C23CCCC2C3(F)F)C1` (single isomer, unassigned) [Compound 1-86, (2S,5S)-4-((1R,5S or 1S,5R)-6,6-difluorobicyclo[3.1.0]hexane-1-carbonyl)-2,3,4,5-tetrahydro-2,5-methanopyrido[3,4-f][1,4]oxazepine-9-carbonitrile], the IC50 is 33 nM.

In the case of `N#Cc1cncc2c1O[C@H]1C[C@@H]2N(C(=O)C23CCCC2C3(F)F)C1` (single isomer, unassigned) [Compound 1-87, (2S,5S)-4-((1R,5S or 1S,5R)-6,6-difluorobicyclo[3.1.0]hexane-1-carbonyl)-2,3,4,5-tetrahydro-2,5-methanopyrido[3,4-f][1,4]oxazepine-9-carbonitrile], the IC50 is 68 nM.

Consider `N#Cc1cncc2c1O[C@H]1C[C@@H]2N(C(=O)C2(F)CC(Oc3ccc(F)cc3F)C2)C1` (single isomer, unassigned) [Compound 1-106, (2S,5S)-4-(3-(2,4-difluorophenoxy)-1-(R or S)-fluorocyclobutane-1-carbonyl)-2,3,4,5-tetrahydro-2,5-methanopyrido[3,4-f][1,4]oxazepine-9-carbonitrile], for which the IC50 was 60 nM.

On to `O=C(N1C[C@@H]2C[C@H]1c1cncc(C#Cc3cncc(F)c3)c1O2)C12CCC(C(F)(F)F)(CC1)C2` [Compound 2-96, ((2S,5S)-9-((5-Fluoropyridin-3-yl)ethynyl)-2,3-dihydro-2,5-methanopyrido[3,4-f][1,4]oxazepin-4(5H)-yl)(4-(trifluoromethyl)bicyclo[2.2.1]heptan-1-yl)methanone], for which the IC50 came to 48 nM.

Turning to `N#Cc1cncc2c1S[C@H]1C[C@@H]2N(C(=O)C2(C#N)CCCC2)C1` [Compound 4-7, (2S,5S)-4-(1-cyanocyclopentane-1-carbonyl)-2,3,4,5-tetrahydro-2,5-methanopyrido[3,4-f][1,4]thiazepine-9-carbonitrile], the IC50 is 27 nM.

Regarding `O=C(N1C[C@@H]2C[C@H]1c1cncc(F)c1O2)C12CCC(F)(CC1)CC2` [Compound 2-15, ((2S,5S)-9-fluoro-2,3-dihydro-2,5-methanopyrido[3,4-f][1,4]oxazepin-4(5H)-yl)(4-fluorobicyclo[2.2.2]octan-1-yl)methanone], the IC50 is 81 nM.

For the molecule `N#Cc1cc(N2CCC(F)(C(=O)N3C[C@@H]4C[C@H]3c3cncc(C#N)c3O4)CC2)ncn1` [Compound 1-52, (2S,5S)-4-(1-(6-cyanopyrimidin-4-yl)-4-fluoropiperidine-4-carbonyl)-2,3,4,5-tetrahydro-2,5-methanopyrido[3,4-f][1,4]oxazepine-9-carbonitrile], the IC50 worked out at 116 nM.

With `CC(C)(CC(F)F)C(=O)N1C[C@@H]2C[C@H]1c1cncc(C#N)c1O2` [Compound 1-15, (2S,5S)-4-(4,4-difluoro-2,2-dimethylbutanoyl)-2,3,4,5-tetrahydro-2,5-methanopyrido[3,4-f][1,4]oxazepine-9-carbonitrile], the half-maximal inhibitory concentration (IC50) came to 99 nM.

`N#Cc1cncc2c1O[C@H]1C[C@@H]2N(C(=O)C2(CC(F)F)CCC2)C1` [Compound 1-44, (2S,5S)-4-[1-(2,2-difluoroethyl)cyclobutane-1-carbonyl]-2,3,4,5-tetrahydro-2,5-methanopyrido[3,4-f][1,4]oxazepine-9-carbonitrile]: the half-maximal inhibitory concentration (IC50) worked out at 254 nM.

Regarding `CC12CC(C(=O)N3C[C@@H]4C[C@H]3c3cncc(C#N)c3O4)(C1)C2` [Compound 1-104, (2S,5S)-4-(3-methylbicyclo[1.1.1]pentane-1-carbonyl)-2,3,4,5-tetrahydro-2,5-methanopyrido[3,4-f][1,4]oxazepine-9-carbonitrile], the half-maximal inhibitory concentration (IC50) worked out at 203 nM.

Turning to `O=C(N1C[C@@H]2C[C@H]1c1cncc(C#Cc3ccncc3)c1O2)C12CCC(C(F)(F)F)(CC1)C2` [Compound 2-52, ((2S,5S)-9-(pyridin-4-ylethynyl)-2,3-dihydro-2,5-methanopyrido[3,4-f][1,4]oxazepin-4(5H)-yl)(4-(trifluoromethyl)bicyclo [2.2.1]heptan-1-yl)methanone], the 50% inhibitory concentration (IC50) worked out at 30 nM.

For the molecule `CC(C)(C(=O)N1C[C@@H]2C[C@H]1c1cncc(C#CCc3ccccc3)c1O2)C(F)F` [Compound 2-46, 3,3-difluoro-2,2-dimethyl-1-((2S,5S)-9-(3-phenylprop-1-yn-1-yl)-2,3-dihydro-2,5-methanopyrido[3,4-f][1,4]oxazepin-4(5H)-yl)propan-1-one], the half-inhibitory concentration (IC50) worked out at 98 nM.

As to `COC(C)(C)C(=O)N1C[C@@H]2C[C@H]1c1cncc(C#N)c1O2` [Compound 1-24, (2S,5S)-4-(2-methoxy-2-methylpropanoyl)-2,3,4,5-tetrahydro-2,5-methanopyrido[3,4-f][1,4]oxazepine-9-carbonitrile], the IC50 worked out at 288 nM.

Regarding `N#Cc1cncc2c1O[C@H]1C[C@@H]2N(C(=O)C23CC(C(F)(F)F)(CO2)C3)C1` [Compound 1-66, (2S,5S)-4-(4-(trifluoromethyl)-2-oxabicyclo[2.1.1]hexane-1-carbonyl)-2,3,4,5-tetrahydro-2,5-methanopyrido[3,4-f][1,4]oxazepine-9-carbonitrile], the 50% inhibitory concentration (IC50) turned out to be 514 nM.

As for `N#Cc1cncc2c1S[C@H]1C[C@@H]2N(C(=O)C23CCC(C(F)(F)F)(CC2)C3)C1` [Compound 4-2, (2S,5S)-4-(4-(trifluoromethyl)bicyclo[2.2.1]heptane-1-carbonyl)-2,3,4,5-tetrahydro-2,5-methanopyrido[3,4-f][1,4]thiazepine-9-carbonitrile], the IC50 amounted to 15 nM.

For the molecule `N#Cc1cncc2c1O[C@H]1C[C@@H]2N(C(=O)C2(C(F)(F)F)CC2)C1` [Compound 1-75, (2S,5S)-4-(1-(trifluoromethyl)cyclopropane-1-carbonyl)-2,3,4,5-tetrahydro-2,5-methanopyrido[3,4-f][1,4]oxazepine-9-carbonitrile], the concentration for half-maximal inhibition (IC50) worked out at 545 nM.

For the molecule `N#Cc1cncc2c1O[C@H]1C[C@@H]2N(C(=O)[C@H]2C[C@@H](Oc3ccc(F)cc3F)C2)C1` [Compound 1-101], the IC50 stood at 132 nM.

`CC(C)(C(=O)N1C[C@@H]2C[C@H]1c1cncc(C#Cc3ccccc3F)c1O2)C(F)F` [Compound 2-44, 3,3-difluoro-1-((2S,5S)-9-((2-fluorophenyl)ethynyl)-2,3-dihydro-2,5-methanopyrido[3,4-f][1,4]oxazepin-4(5H)-yl)-2,2-dimethylpropan-1-one]: the IC50 stood at 34 nM.

Take `CC(C)(C(=O)N1C[C@@H]2C[C@H]1c1cncc(C#Cc3cncc(Cl)c3)c1O2)C(F)F` [Compound 2-90, 1-((2S,5S)-9-((5-chloropyridin-3-yl)ethynyl)-2,3-dihydro-2,5-methanopyrido[3,4-f][1,4]oxazepin-4(5H)-yl)-3,3-difluoro-2,2-dimethylpropan-1-one]: the IC50 came out at 28 nM.

For `CC(C)(C(=O)N1C[C@@H]2C[C@H]1c1cncc(C#N)c1S2)C(F)F` [Compound 4-1, (2S,5S)-4-(3,3-difluoro-2,2-dimethylpropanoyl)-2,3,4,5-tetrahydro-2,5-methanopyrido[3,4-f][1,4]thiazepine-9-carbonitrile], the IC50 was 24 nM.

In general, IC50 refers to the concentration that gives 50% inhibition.
